Laboratory results reported in patent publication US20220323471A1 (priority 2019, published 2022).

Tests used:
JEV-RVP = type: cell-based, Japanese encephalitis virus; details: VERO cells; DGP 1 μM; NH4Cl 20 mM
EBV RVP = type: cell-based, Ebola virus
ZIKV strain MR766 = assay: In situ (+)-ZIKV RNA hybridization in VERO cells; type: cell-based, Zika virus; details: MOI 0.5, 1 μM, 48 hours
Protocol: To determine the ZIKV life cycle stage at which DGP acts, two approaches were used to measure the production of viral RNA: 1) In situ hybridization to image viral RNA by using fluorescent probes, and 2) Reverse transcription PCR (qRT-PCR) to quantify viral RNA. […] At 48 hours post-infection, cells were fixed/permeabilized and ZIKV positive-strand RNA and detected by in situ hybridization using a specific fluorescently labeled negative-strand probe (green) and cell nuclei were stained using 4%6-diamidino-2-phenylindole (DAPI; blue). Twenty-five random images were captured for each treatment (Mock, ZIKV MR766, and ZIKV MR766+DGP 1 μM). To quantify the extent of infection, 400 cells per treatment were randomly counted and the percentage of infected (green) cells were calculated.
ZIKV RNA in cultured adherent cells was probed using the RNAscope reagents and protocol (Advanced Cell Diagnostics) (Wang, F. et al. 2012, “RNAscope: a novel in situ RNA analysis platform for formalin-fixed, paraffin-embedded tissues.” J Mol Diagn 14(1): 22-29) with some modifications as previously described (Puray-Chavez, M. 2017, “Multiplex single-cell visualization of nucleic acids and protein during HIV infection.” Nat Commun 8(1): 1882. Fixed cells on coverslips were washed twice with PBS, then incubated with 0.1% Tween-20 in PBS (PBS-T) for 10 min at room temperature (RT) and washed in PBS for 1 min. […]

[1] = system: endosomes and lysosomes of HT1080 cells; assay: Acridine Orange fluorescence, endosomal/lysosomal acidification; type: cell-based, human; details: 4 hours pre-incubation, DGP, diphyllin, 6DG 2, 1 or 0.1 μM, Bafilomycin 100 nM, NH4Cl 25 mM
Protocol: To determine whether DGP inhibited ZIKV infection by preventing the acidification of endosomes and lysosomes, Acridine Orange (AO) was used, a cell-permeable fluorescent dye marker that accumulates in low pH compartments such as endosomes and lysosomes.
HT1080 cells were pre-incubated for 4 hours with the Bafilomycin (FIG. 10A, 100 nM), NH4Cl (FIG. 10A, 25 mM), DGP (FIG. 10B: 2 μM, 1 μM, or 0.1 μM) diphyllin (FIG. 10C: 2 μM, 1 μM, or 0.1 μM), or 6DG (FIG. 10C: 2 μM, 1 μM, or 0.1 μM) to test whether DGP prevents endosomal/lysosomal acidification. After staining the cells with 1 μg/mL of AO, changes in fluorescence were measured using a Celesta flow cytometer on the PerCP-Cy5-5-A channel. A shift in the AO fluorescence is indicated with an arrow in FIGS. 10A-10D.
Acridine Orange (Invitrogen) staining was performed as described previously (Kanzawa, T. et al. 2004, “Role of autophagy in temozolomide-induced cytotoxicity for malignant glioma cells.” Cell Death Differ 11(4): 448-457). Cells were stained with 1 μg/mL AO in 10% FBS DMEM for 30 min at 37° C. and then collected by trypsinization. Changes in fluorescence were measured using a Celesta flow cytometer in the PerCP-Cy5-5-A channel.

COc1cc2c(OC3OC(C)C(O)C(O)C3O)c3c(c(-c4ccc5c(c4)OCO5)c2cc1OC)C(=O)OC3 (centres unmarked) [DGP, 6-deoxyglucose-diphyllin]
JEV RVP infection (JEV-RVP): almost undetectable | EBV RVP infection (EBV RVP): almost undetectable | % Infected Cells (ZIKV strain MR766): 3.05% | Infected Cells (Green) (ZIKV strain MR766; of 400 cells counted): 12 | acidification of endosomes and lysosomes (AO fluorescence) [1]: decreased AO fluorescence
